What all share (assay type): functional, cell-based
The test system of experiment [1] is B16. The experiment can be described thus: Antimigratory activity against mouse B16 cells after 24 hrs by crystal violet staining based inverted microscopic method.
In experiment [2] the test system is B16. The experiment in a line: Antimigratory activity against mouse B16 cells assessed as inhibition of MMP2 mRNA level after 24 hrs by SYBR staining based real-time qPCR assay. To be noted: B16, 24 h. (Quantitative PCR measures a nucleic acid by following its amplification.)
Experiment [3] has as its system B16. The experiment in a line: Antimigratory activity against mouse B16 cells assessed as decrease in TGFbeta mRNA level by SYBR staining based real-time qPCR assay.
Experiment [4] relates to B16. The experiment in a line: Antimigratory activity against mouse B16 cells assessed as inhibition of MMP9 mRNA level after 24 hrs by SYBR staining based real-time qPCR assay. Conditions: B16, 24 h.
Experiment [5] has as its system B16. The experiment can be described thus: Antimigratory activity against mouse B16 cells assessed as decrease in TNFalpha mRNA level by SYBR staining based real-time qPCR assay.
Experiment [6] relates to B16. The experiment in a line: Antimigratory activity against mouse B16 cells assessed as decrease in IL-1beta mRNA level by SYBR staining based real-time qPCR assay.
In experiment [7] the test system is B16. The experiment in a line: Antimigratory activity against mouse B16 cells assessed as inhibition of VEGF mRNA level after 24 hrs by SYBR staining based real-time qPCR assay. To be noted: B16, 24 h.
For the next experiment, the system named is A549. The experiment can be described thus: Antimigratory activity against human A549 cells after 24 hrs by crystal violet staining based inverted microscopic method.
Experiment [8] deals with B16. The experiment can be described thus: Antimigratory activity against mouse B16 cells assessed as decrease in IL-6 mRNA level by SYBR staining based real-time qPCR assay.

A word on the IC50: it is the concentration needed to halve the response being measured. On to `C=C[C@H]1CC[C@H]2[C@@H]3CC[C@H]4CC(=O)/C(=C5\NCCc6nc[nH]c65)C(=O)[C@]4(C)[C@H]3CC[C@]12C`, for which the Activity result with B16 [1], in the experiment with B16 [3], with B16 [5], with B16 [6], with A549 and in the experiment on B16 [8] was “Dose-dependent effect” throughout. Besides, the IC50 in the experiment on B16 [2] came to 6.6 µM; with B16 [4], 5.3 µM; in the experiment with B16 [7], 8.4 µM.
On to `C=C[C@H]1CC[C@H]2[C@@H]3CC[C@H]4CC(=O)/C(=C5\NC=Cc6nc[nH]c65)C(=O)[C@]4(C)[C@H]3CC[C@]12C`, for which the Activity entry in the experiment on B16 [1], in the experiment on B16 [3], in the experiment on B16 [5], in the experiment with B16 [6], in the experiment on A549 and in the experiment on B16 [8] was “Dose-dependent effect” each time. For the same compound, the 50% inhibitory concentration (IC50) with B16 [2] worked out at 5.8 µM; in the experiment with B16 [4], 12.4 µM; with B16 [7], 7.6 µM.

(Values after ChEMBL document CHEMBL4024733, “An unusual spinaceamine-bearing pregnane from a soft coral Scleronephthya sp. inhibits the migration of tumor cells” (Bioorg Med Chem Lett, 2017).)
